Test results published in patent US11059832B2, “HPK1 inhibitors and methods of using same” (University Health Network, priority 2015, dated 2021).

Columns and labels:
Type in all cases: biochemical
human HPK1 (MAP4K1) = target: T1, human HPK1 (MAP4K1) (Homo sapiens, UniProt Q92918); experiment: HPK1 inhibition assay (indirect ELISA); details: GST-HPK1 0.6 nM, 12 μM ATP; read-out: IC50 Range HPK1
T1 construct: human HPK1 (aa 1-346); purchased Invitrogen PV6355
T1 sequence (Q92918 1-346): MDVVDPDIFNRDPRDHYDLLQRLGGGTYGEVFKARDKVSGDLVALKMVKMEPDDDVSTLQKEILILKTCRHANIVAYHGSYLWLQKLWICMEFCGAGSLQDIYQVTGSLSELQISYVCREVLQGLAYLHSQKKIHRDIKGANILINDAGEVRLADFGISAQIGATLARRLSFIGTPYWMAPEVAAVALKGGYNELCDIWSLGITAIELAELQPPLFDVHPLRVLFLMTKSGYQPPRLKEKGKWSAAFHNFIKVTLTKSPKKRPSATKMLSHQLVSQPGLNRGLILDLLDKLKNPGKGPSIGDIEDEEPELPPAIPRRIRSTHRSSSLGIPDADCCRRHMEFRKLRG
Method: Active HPK1 (MAP4K1) was purchased as an N-terminal GST fusion of human HPK1 (aa 1-346) from Invitrogen (cat #PV6355). HPK1 activity was measured using an indirect ELISA detection system. GST-HPK1 (0.6 nM) was incubated in the presence of 12 μM ATP (Sigma cat #A7699), 5 mM MOPS (pH 7.2), 2.5 mM β-glycerol-phosphate, 5 mM MgCl2, 0.4 mM EDTA, 1 mM EGTA, 0.05 mM DTT, in a 96 well microtitre plate pre-coated with 0.5 μg/well bovine myelin basic protein (MBP) (Millipore, cat #13-110). The reaction was allowed to proceed for 30 min, followed by 5 washes of the plate with Wash Buffer (phosphate buffered saline supplemented with 0.2% Tween 20), and incubation for 30 min with a 1:3000 dilution of anti-phospho-threonine rabbit polyclonal antibody (Cell Signaling cat #9381). The plate was washed 5 times with wash buffer, incubated for 30 min in the presence of goat anti-rabbit horse radish peroxidase conjugate (BioRad cat #1721019, 1:3000 concentration), washed an additional 5 times with wash buffer, and incubated in the presence of TMB substrate (Sigma cat #T0440). The colorimetric reaction was allowed to continue for 5 min, followed by addition of stop solution (0.5 N H2SO4), and quantified by detection at 450 nm with a monochromatic plate reader (Molecular Devices M5).
Compound inhibition was determined at either a fixed concentration (10 μM) or at a variable inhibitor concentration (typically 50 μM to 0.1 μM in a 10 point dose response titration). Compounds were pre-incubated in the presence of enzyme for 15 min prior to addition of ATP and the activity remaining quantified using the above described activity assay. The % inhibition of a compound was determined using the following formula; % inhibition=100×(1−(experimental value−background value)/(high activity control−background value)). The IC50 value was determined using a non-linear 4 point logistic curve fit (XLfit4, IDBS) with the formula; (A+(B/(1+((x/C)^D)))), where A=background value, B=range, C=inflection point, D=curve fit parameter.

LCK = target: T2, LCK (Homo sapiens, UniProt P06239); experiment: LCK inhibition, FRET based Z'-LYTE Kinase Assay; details: 25 nM LCK, 180 μM ATP; read-out: IC50 Range Lck
T2 construct: purchased Invitrogen P3043
T2 sequence (P06239 whole entry, species assumed): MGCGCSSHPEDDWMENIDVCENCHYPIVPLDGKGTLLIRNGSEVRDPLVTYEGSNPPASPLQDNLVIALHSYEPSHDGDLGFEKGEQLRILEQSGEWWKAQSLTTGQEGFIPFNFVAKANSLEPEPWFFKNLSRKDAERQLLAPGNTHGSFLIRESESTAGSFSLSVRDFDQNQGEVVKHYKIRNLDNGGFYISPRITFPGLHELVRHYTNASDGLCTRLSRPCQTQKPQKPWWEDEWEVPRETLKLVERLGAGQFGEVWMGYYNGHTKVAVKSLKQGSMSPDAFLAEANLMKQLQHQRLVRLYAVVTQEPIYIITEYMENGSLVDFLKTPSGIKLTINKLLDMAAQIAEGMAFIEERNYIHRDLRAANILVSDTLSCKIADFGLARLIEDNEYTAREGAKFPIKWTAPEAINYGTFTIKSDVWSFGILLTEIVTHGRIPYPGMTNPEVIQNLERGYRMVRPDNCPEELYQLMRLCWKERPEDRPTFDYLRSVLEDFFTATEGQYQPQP
Method: (§1) FLT3 and LCK compound inhibition were determined using FRET based Z′-LYTE Kinase Assay Kit with Tyrosine 2 peptide as the substrate (Invitrogen cat #PV3191). […] The % inhibition values were determined according to the manufacturer's directions and IC50 values were obtained using a non-linear 4 point logistic curve fit (XLfit4, IDBS).

FLT3 = target: T3, FLT3 (Homo sapiens, UniProt P36888); experiment: FLT3 inhibition, FRET based Z'-LYTE Kinase Assay; details: 1 nM FLT3, 940 μM ATP; read-out: IC50 Range Flt3
T3 construct: purchased Invitrogen PV3182
T3 sequence (P36888 27-993): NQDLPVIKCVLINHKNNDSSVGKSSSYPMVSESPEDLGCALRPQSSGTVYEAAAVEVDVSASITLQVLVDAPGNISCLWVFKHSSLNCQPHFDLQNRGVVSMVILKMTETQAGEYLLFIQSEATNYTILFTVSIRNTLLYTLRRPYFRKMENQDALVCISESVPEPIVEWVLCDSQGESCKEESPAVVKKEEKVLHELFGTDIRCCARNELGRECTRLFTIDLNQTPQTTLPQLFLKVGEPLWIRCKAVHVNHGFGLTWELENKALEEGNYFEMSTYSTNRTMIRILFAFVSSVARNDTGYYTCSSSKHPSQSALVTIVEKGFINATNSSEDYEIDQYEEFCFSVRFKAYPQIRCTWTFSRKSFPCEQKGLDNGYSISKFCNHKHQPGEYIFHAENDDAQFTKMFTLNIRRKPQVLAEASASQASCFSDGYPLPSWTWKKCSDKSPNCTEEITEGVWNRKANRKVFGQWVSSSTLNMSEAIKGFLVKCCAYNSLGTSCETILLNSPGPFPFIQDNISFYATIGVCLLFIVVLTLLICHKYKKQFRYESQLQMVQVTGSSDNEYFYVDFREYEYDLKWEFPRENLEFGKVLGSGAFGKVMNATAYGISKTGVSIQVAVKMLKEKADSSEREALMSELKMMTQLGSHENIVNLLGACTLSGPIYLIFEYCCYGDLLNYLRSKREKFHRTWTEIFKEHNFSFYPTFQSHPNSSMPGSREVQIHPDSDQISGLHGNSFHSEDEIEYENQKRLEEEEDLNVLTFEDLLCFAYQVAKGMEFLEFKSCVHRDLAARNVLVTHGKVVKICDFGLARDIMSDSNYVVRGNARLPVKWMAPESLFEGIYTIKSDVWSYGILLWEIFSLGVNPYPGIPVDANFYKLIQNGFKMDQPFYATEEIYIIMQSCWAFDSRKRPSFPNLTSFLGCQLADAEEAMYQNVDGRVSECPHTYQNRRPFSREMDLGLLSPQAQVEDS
Method: as §1

Row | IC50 (human HPK1 (MAP4K1)) [nM] | IC50 (LCK) [nM] | IC50 (FLT3) [nM] | SMILES
1 | ≤ 50 | ≤ 50 | ≤ 50 | CN1CCN(c2ccc3nc(-c4c(N[C@@H]5CC[C@@H](O)C5)c5ccsc5[nH]c4=O)[nH]c3c2)CC1 (relative stereo) [Example A9, 4-(((1R*,3R*)-3-hydroxycyclopentyl)amino)-5-(6-(4-methylpiperazin-1-yl)-1H-benzo[d]imidazol-2-yl)thieno[2,3-b]pyridin-6(7H)-one]
2 | ≤ 50 | 50 to 500 | ≤ 50 | CN1CCN(c2ccc3nc(-c4c(N[C@@H]5CC[C@H](O)C5)c5ccsc5[nH]c4=O)[nH]c3c2)CC1 (relative stereo) [Example A13, 4-(((1R*,3S*)-3-hydroxycyclopentyl)amino)-5-(6-(4-methylpiperazin-1-yl)-1H-benzo[d]imidazol-2-yl)thieno[2,3-b]pyridin-6(7H)-one]
3 | ≤ 50 | ≤ 50 | ≤ 50 | CN1CCN(c2ccc3nc(-c4c(N[C@@H]5CC[C@H](O)C5)c5sccc5[nH]c4=O)[nH]c3c2)CC1 (relative stereo) [Example A36, 7-(((1R*,3S*)-3-hydroxycyclopentyl)amino)-6-(6-(4-methylpiperazin-1-yl)-1H-benzo[d]imidazol-2-yl)thieno[3,2-b]pyridin-5(4H)-one]
4 | ≤ 50 | 50 to 500 | ≤ 50 | CN1CCN(c2ccc3nc(-c4c(N[C@H]5CCNC[C@H]5F)c5ccsc5[nH]c4=O)[nH]c3c2)CC1 (relative stereo) [Example A55, 4-(((3R*,4S*)-3-fluoropiperidin-4-yl)amino)-5-(6-(4-methylpiperazin-1-yl)-1H-benzo[d]imidazol-2-yl)thieno[2,3-b]pyridin-6(7H)-one]
5 | ≤ 50 | 50 to 500 | ≤ 50 | CN1CCN(c2ccc3nc(-c4c(NC5CCOCC5)c5ccsc5[nH]c4=O)[nH]c3c2)CC1 [Example A7, 5-(6-(4-methylpiperazin-1-yl)-1H-benzo[d]imidazol-2-yl)-4-((tetrahydro-2H-pyran-4-yl)amino)thieno[2,3-b]pyridin-6(7H)-one]
6 | ≤ 50 | 50 to 500 | ≤ 50 | CN1CCN(c2ccc3nc(-c4c(N[C@H]5C[C@H](O)C5)c5ccsc5[nH]c4=O)[nH]c3c2)CC1 [Example A8, 4-(((1r,3r)-3-hydroxycyclobutyl)amino)-5-(6-(4-methylpiperazin-1-yl)-1H-benzo[d]imidazol-2-yl)thieno[2,3-b]pyridin-6(7H)-one]
7 | ≤ 50 | ≤ 50 | ≤ 50 | CN1CCN(c2ccc3nc(-c4c(N[C@@H]5CCNC[C@H]5F)c5ccsc5[nH]c4=O)[nH]c3c2)CC1 [Example A14, 4-(((3R,4R)-3-fluoropiperidin-4-yl)amino)-5-(6-(4-methylpiperazin-1-yl)-1H-benzo[d]imidazol-2-yl)thieno[2,3-b]pyridin-6(7H)-one]
8 | ≤ 50 | ≤ 50 | ≤ 50 | CN1CCN(c2ccc3nc(-c4c(NC5CCNCC5(F)F)c5ccsc5[nH]c4=O)[nH]c3c2)CC1 (stereo not shown) [Example A15, 4-((3,3-difluoropiperidin-4-yl)amino)-5-(6-(4-methylpiperazin-1-yl)-1H-benzo[d]imidazol-2-yl)thieno[2,3-b]pyridin-6(7H)-one]
9 | ≤ 50 | ≤ 50 | ≤ 50 | CN1CCN(c2ccc3nc(-c4c(NC5CCN(C=O)CC5)c5ccsc5[nH]c4=O)[nH]c3c2)CC1 [Example A17, 4-((5-(6-(4-methylpiperazin-1-yl)-1H-benzo[d]imidazol-2-yl)-6-oxo-6,7-dihydrothieno[2,3-b]pyridin-4-yl)amino)piperidine-1-carbaldehyde]
10 | ≤ 50 | ≤ 50 | ≤ 50 | CN1CCN(c2ccc3nc(-c4c(NC5CCC5)c5cscc5[nH]c4=O)[nH]c3c2)CC1 [Example A27, 4-(cyclobutylamino)-3-(6-(4-methylpiperazin-1-yl)-1H-benzo[d]imidazol-2-yl)thieno[3,4-b]pyridin-2(1H)-one]

More lines, now with the values behind:

Row | SMILES | IC50 (human HPK1 (MAP4K1)) [nM] | IC50 (LCK) [nM] | IC50 (FLT3) [nM]
11 | Cc1csc2[nH]c(=O)c(-c3nc4ccc(N5CCN(C)CC5)cc4[nH]3)c(N)c12 [Example A2, 4-amino-3-methyl-5-(6-(4-methylpiperazin-1-yl)-1H-benzo[d]imidazol-2-yl) thieno[2,3-b]pyridin-6(7H)-one] | ≤ 50 | 50 to 500 | ≤ 50
12 | Nc1c(-c2nc3ccc(N4CCOCC4)cc3[nH]2)c(=O)[nH]c2sccc12 [Example A4, 4-amino-5-(6-morpholino-1H-benzo[d]imidazol-2-yl)thieno[2,3-b]pyridin-6(7H)-one] | ≤ 50 | 50 to 500 | ≤ 50
13 | CN1CCN(c2ccc3nc(-c4c(NCc5ccncc5)c5sccc5[nH]c4=O)[nH]c3c2)CC1 [Example A22, 6-(6-(4-methylpiperazin-1-yl)-1H-benzo[d]imidazol-2-yl)-7-((pyridin-4-ylmethyl)amino)thieno[3,2-b]pyridin-5(4H)-one] | ≤ 50 | 50 to 500 | ≤ 50
14 | CN1CCN(c2ccc3nc(-c4c(NC5CCCC5)c5cscc5[nH]c4=O)[nH]c3c2)CC1 [Example A24, 4-(cyclopentylamino)-3-(6-(4-methylpiperazin-1-yl)-1H-benzo[d]imidazol-2-yl)thieno[3,4-b]pyridin-2(1H)-one] | ≤ 50 | ≤ 50 | ≤ 50
15 | Nc1c(-c2nc3ccc(N4CCOCC4)cc3[nH]2)c(=O)[nH]c2ccsc12 [Example A31, 7-amino-6-(6-morpholino-1H-benzo[d]imidazol-2-yl)thieno[3,2-b]pyridin-5(4H)-one] | ≤ 50 | 50 to 500 | ≤ 50
16 | CN1CCN(c2ccc3nc(-c4c(N)c5ccsc5[nH]c4=O)[nH]c3c2F)CC1 [Example A69, 4-amino-5-(7-fluoro-6-(4-methylpiperazin-1-yl)-1H-benzo[d]imidazol-2-yl)thieno[2,3-b]pyridin-6(7H)-one] | – | 50 to 500 | ≤ 50
17 | CN1CCN(c2ccc3nc(-c4c(N[C@H]5CCCC[C@H]5O)c5cscc5[nH]c4=O)[nH]c3c2)CC1 [Example A70, 4-(((1S,2R)-2-hydroxycyclohexyl)amino)-3-(6-(4-methylpiperazin-1-yl)-1H-benzo[d]imidazol-2-yl)thieno[3,4-b]pyridin-2(1H)-one] | – | ≤ 50 | ≤ 50
